Test results taken from patent publication US8759504B2, “Cholinergic/serotoninergic receptor and uses thereof” (AbbVie Inc., priority 2007, dated 2014).
“Also recorded” adds a separate entry of the source. Like-named read-outs stand apart in the source and are kept apart here. Blank lines part the entries; values can stand above or below the compound they belong to.

Tests used:
[1] = target: T1, wild-type α7 nicotinic acetylcholine receptor (Homo sapiens, UniProt P36544); assay: Two electrode voltage clamp in Xenopus oocytes, agonist and modulator responses; type: cell-based; settings: for Effect of modulator on ACh-evoked current (words): Xenopus oocytes
T1 construct: expressed in transfected cells; host or cells: Xenopus laevis oocytes

[2] = target: T2, Chimera 2 (Homo sapiens, UniProt P36544, M226I/T225V); assay: Membrane potential imaging (FLIPR-FMP) in HEK-293 cells; type: cell-based; parameters: expressed in transfected cells; settings: for Modulation of submaximum agonist-evoked membrane potential response (words): FMP
[3] = target: T3, Chimera 1 (Homo sapiens, UniProt P36544, M226I/T225V); assay: as above; type: cell-based; parameters: expressed in transfected cells; settings: for Modulation of submaximum agonist-evoked membrane potential response (words): FMP
[4] = target: T2, Chimera 2; assay: Whole cell patch clamp in HEK-293 cells; type: cell-based; parameters: expressed in transfected cells
[5] = target: T2, Chimera 2; assay: [3H]A-585539 radioligand binding, HEK-293 membranes/homogenates; parameters: expressed in transfected cells; settings: increasing concentrations
[6] = target: T4, rat brain α7* nicotinic acetylcholine receptors (Rattus norvegicus, UniProt Q05941); assay: [3H]A-585539 radioligand binding, rat brain homogenates
T4 construct: expressed both as a native (rat cortex) or α7/5-HT3 chimeric receptor; from tissue; host or cells: rat brain / rat cortex homogenates

[7] = target: T5, wild-type human 5-HT3A receptors (Homo sapiens, UniProt P46098); assay: Two electrode voltage clamp in Xenopus oocytes, agonist and modulator responses; type: cell-based
T5 construct: expressed in transfected cells; host or cells: Xenopus laevis oocytes
T5 sequence (P46098 1-484 isoform P46098-4): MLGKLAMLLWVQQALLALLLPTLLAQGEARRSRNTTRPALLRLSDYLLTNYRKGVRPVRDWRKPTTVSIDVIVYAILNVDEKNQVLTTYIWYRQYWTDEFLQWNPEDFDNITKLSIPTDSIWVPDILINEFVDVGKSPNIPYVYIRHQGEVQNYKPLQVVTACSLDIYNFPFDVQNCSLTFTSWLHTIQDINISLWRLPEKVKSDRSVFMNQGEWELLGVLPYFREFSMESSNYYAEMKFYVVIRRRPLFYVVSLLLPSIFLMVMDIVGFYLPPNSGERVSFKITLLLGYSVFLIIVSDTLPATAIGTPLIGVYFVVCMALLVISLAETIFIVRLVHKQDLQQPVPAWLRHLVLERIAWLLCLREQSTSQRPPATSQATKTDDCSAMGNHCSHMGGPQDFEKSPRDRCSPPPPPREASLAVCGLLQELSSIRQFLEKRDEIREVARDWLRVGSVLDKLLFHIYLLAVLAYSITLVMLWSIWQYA

[8] = target: T3, Chimera 1; assay: Two electrode voltage clamp in Xenopus oocytes (POETs), agonist and modulator responses; type: cell-based; parameters: expressed in transfected cells; host or cells: Xenopus laevis oocytes (transient, A1)
[9] = target: T2, Chimera 2; assay: as above; type: cell-based; parameters: expressed in transfected cells; host or cells: Xenopus laevis oocytes (transient, A2)
[10] = target: T6, Chimera 8 (Homo sapiens, UniProt P46098, I238M/V237T); assay: Two electrode voltage clamp in Xenopus oocytes, reverse 5HT3-α7 chimera; type: cell-based
T6 construct: expressed in transfected cells; host or cells: Xenopus laevis oocytes
Method: Xenopus laevis oocytes were prepared and injected as previously described {Eisele, 1993 #2; Krause, 1998 #4}. Briefly, ovaries were harvested from female Xenopus. Isolation of the oocytes was obtained by enzymatic dissociation using collagenase type I in a medium deprived of calcium and by gentle mechanical agitation for approximately 3 hours. Oocytes stage 5-6 were manually selected on the next day and injected into the nucleus with 2 ng plasmid containing the cDNA of interest. Oocytes were then placed in a 96 well microtiter plate in Barth solution and used for electrophysiological investigation two to five days later. All recordings were performed at 18° C. and cells were superfused with OR2 medium containing in mM:NaCl 82.5, KCI 2.5, HEPES 5, CaCl2.2H2O 2.5, MgCl2.6H2O 1, pH 7.4, and 0.5 μM atropine was added to prevent possible activation of endogenous muscarinic receptors. Unless indicated cells were held at −100 mV using a two electrode voltage clamp apparatus connected to a Geneclamp amplifier (Molecular Devices). Data were captured and analyzed using data acquisition and analysis software. […] Values indicated throughout the text are given with their respective standard error of the mean (SEM). For statistical analysis we used the unpaired, two-tailed Student's T test using either excel (Microsoft) or Matlab (Mathworks Inc.).
To examine the putative role of the transmembrane domains, a reverse chimera comprising the 5-HT3 ligand binding domain and the transmembrane domain of α7 was designed and constructed. […] See FIGS. 13A and B. To best evaluate a putative allosteric modulation, currents evoked by low agonist concentration were also investigated, but exposure to either NS-1738 or PNU-120596 caused no detectable modification of the response amplitude or time course. […] Data not shown. […] The cartoon above the traces in FIG. 13 illustrates the schematic structure of a single subunit inserted into the membrane. The gray line corresponds to the extracellular 5HT3 receptor sequence, whereas the dark line indicates the α7 segments. Despite the low yield of expression, significant and reproducible currents were evoked by brief exposure to 5-HT.

[11] = HEK-293 cells, listed as 5-hydroxyindole
[12] = read-out: Maximum efficacy (mean±S.E.M.), agonist-evoked current
[13] = HEK293, read-out: Maximum efficacy (mean±S.E.M.), membrane potential imaging, HEK-293 cells
[14] = read-out: Agonist potency, membrane potential imaging: EC50 (95% C.I.), HEK-293 cells
[15] = HEK293, read-out: Agonist maximum efficacy, control (no modulator)
[16] = HEK293, read-out: Agonist maximum efficacy, in the presence of 10 μM genistein
[17] = HEK293, read-out: Agonist maximum efficacy, in the presence of 1 mM 5-HI
[18] = read-out: Agonist concentration-response EC50, control (no modulator)
[19] = read-out: Agonist concentration-response EC50, in the presence of 10 μM genistein
[20] = read-out: Agonist concentration-response EC50, in the presence of 1 mM 5-HI

T1 sequence (P36544 23-502): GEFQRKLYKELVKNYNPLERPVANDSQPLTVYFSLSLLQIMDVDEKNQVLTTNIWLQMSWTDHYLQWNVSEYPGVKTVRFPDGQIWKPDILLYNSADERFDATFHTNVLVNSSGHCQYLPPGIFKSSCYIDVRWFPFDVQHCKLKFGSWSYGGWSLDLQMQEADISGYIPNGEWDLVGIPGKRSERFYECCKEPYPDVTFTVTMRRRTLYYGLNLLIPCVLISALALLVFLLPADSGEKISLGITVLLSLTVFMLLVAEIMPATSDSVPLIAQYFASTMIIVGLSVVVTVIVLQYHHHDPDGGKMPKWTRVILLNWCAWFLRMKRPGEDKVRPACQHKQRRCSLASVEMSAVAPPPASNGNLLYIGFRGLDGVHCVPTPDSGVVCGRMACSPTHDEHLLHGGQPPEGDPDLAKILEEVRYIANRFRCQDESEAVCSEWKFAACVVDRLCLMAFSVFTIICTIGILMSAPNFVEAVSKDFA
T3 sequence (P36544 with tags, fused parts or gaps T225V/M226I): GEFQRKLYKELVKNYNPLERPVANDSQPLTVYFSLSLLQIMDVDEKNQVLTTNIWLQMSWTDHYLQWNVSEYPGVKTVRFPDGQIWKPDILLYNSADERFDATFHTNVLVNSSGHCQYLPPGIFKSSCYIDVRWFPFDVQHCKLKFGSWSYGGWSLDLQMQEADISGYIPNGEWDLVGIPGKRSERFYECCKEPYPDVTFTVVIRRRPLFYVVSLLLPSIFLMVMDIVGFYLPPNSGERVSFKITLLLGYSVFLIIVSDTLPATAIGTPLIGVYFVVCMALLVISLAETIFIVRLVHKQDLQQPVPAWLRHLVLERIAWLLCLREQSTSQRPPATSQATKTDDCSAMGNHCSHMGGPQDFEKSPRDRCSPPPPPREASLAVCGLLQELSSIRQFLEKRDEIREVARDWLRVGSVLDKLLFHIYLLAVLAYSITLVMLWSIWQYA
T2 sequence (P36544 with tags, fused parts or gaps T225V/M226I): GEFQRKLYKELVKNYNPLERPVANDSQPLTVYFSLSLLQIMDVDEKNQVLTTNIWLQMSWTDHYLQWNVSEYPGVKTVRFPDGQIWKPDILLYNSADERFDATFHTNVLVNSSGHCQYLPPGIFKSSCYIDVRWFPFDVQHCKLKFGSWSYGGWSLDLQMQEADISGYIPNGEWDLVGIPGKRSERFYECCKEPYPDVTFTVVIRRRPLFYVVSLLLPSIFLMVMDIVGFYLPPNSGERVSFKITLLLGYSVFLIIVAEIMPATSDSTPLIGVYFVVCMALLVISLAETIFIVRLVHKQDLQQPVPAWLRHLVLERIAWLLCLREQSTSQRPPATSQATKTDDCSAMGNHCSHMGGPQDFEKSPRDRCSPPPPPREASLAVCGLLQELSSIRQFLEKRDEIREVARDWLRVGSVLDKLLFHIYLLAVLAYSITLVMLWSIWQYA
T4 sequence (Q05941 23-502): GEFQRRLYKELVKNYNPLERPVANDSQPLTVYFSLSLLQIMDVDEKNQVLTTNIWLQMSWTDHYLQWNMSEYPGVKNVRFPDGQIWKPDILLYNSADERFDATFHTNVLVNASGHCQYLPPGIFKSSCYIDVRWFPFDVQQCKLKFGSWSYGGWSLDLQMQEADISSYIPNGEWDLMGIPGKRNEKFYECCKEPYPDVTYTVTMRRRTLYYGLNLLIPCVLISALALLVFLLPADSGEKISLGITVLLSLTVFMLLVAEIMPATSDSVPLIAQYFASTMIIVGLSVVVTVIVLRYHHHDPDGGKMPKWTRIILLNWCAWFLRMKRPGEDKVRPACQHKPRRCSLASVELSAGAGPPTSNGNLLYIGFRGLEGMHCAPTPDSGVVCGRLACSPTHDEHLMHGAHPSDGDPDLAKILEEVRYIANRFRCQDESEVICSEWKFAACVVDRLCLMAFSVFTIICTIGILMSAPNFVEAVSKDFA
T6 sequence (P46098 with tags, fused parts or gaps isoform P46098-4 V243T/I244M): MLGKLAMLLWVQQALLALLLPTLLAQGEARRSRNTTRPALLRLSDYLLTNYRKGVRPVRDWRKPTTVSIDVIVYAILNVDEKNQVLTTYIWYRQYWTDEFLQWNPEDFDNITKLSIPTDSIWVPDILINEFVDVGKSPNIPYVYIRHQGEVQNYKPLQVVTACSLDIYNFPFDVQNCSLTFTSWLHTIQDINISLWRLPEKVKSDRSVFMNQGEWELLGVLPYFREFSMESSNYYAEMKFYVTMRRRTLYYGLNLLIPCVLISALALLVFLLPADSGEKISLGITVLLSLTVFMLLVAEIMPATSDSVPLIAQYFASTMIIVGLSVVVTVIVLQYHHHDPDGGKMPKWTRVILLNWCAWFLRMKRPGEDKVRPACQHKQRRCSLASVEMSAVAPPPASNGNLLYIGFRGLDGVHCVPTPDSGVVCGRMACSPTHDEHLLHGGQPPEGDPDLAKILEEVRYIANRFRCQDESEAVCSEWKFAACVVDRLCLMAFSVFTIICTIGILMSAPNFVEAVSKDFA

SMILES: Oc1ccc2[nH]ccc2c1 [5-HI, 5-hydroxyindole]
EC50 [1]: 667 µM
Percentage potentiation of submaximum agonist-evoked responses (mean±S.E.M.) ([1]; 100 μM ACh): 516±59%
ng of ACh curve after modulator ([1]; 1 mM 5-HI): 1.97 ± 0.84
EC50 ([1]; Positive allosteric modulation potency, two electrode voltage clamp: EC50 (95% C.I.), submaximum ACh (100 μM)-evoked response): 500 to 700 µM
Effect of modulator on ACh-evoked current (words) [1]: substantial increase in the amplitude of the subsequent ACh-evoked current
Modulation of submaximum agonist-evoked membrane potential response (words) ([2]; HEK-293 cells): potentiated submaximum NS6784 evoked responses; also recorded: effective as positive allosteric modulators; also recorded: effective in both Chimeras
Modulation of submaximum agonist-evoked membrane potential response (words) [2, 11]: able to potentiate both Chimeras
EC50 ([2]; read-out: FMP imaging: positive allosteric modulation EC50 (95% C.I.), submaximum NS6784 (60-70 nM)): 324 µM
Maximum positive allosteric modulation efficacy ([2]; submaximum NS6784 60-70 nM): 177±8%
Modulation of submaximum agonist-evoked membrane potential response (words) ([3]; HEK-293 cells): potentiated the submaximum α7 agonist (NS6784) evoked membrane potential depolarization; also recorded: effective in both Chimeras
Modulation of submaximum agonist-evoked membrane potential response (words) [3, 11]: able to potentiate both Chimeras
EC50 ([3]; read-out: FMP imaging: positive allosteric modulation EC50 (95% C.I.), submaximum NS6784 (120-200 nM)): 234 µM
Maximum positive allosteric modulation efficacy ([3]; submaximum NS6784 120-200 nM): 204±9%
Directly evoked peak response normalized to 100 μM ACh ([4]; 10 mM): 26.4±7.1%
Directly evoked total charge (integral) normalized to 100 μM ACh ([4]; 10 mM): 52.4±10.3%
Direct current activation by modulator alone ([4]; genistein 100 μM, 5-HI 10 mM): Qualitatively similar responses were also obtained
Positive allosteric modulation of ACh-evoked current ([4]; genistein 30-50 μM, 5-HI 1 mM): effective as positive allosteric modulators
Competition / displacement of [3H]A-585539 binding [5]: neither compound effectively displaced the binding
Competition / displacement of [3H]A-585539 binding ([6]; rat cortex, increasing concentrations): neither compound effectively displaced the binding
Percentage potentiation of submaximum agonist-evoked responses (mean±S.E.M.) ([7]; 1-3 μM 5-HT): 58±9%
Effect of modulator on agonist (5-HT)-evoked current ([7]; Xenopus oocytes): Neither compound increased the responses
inhibition at 10000 µM ([7]; at 10,000 μM (10 mM), read-out: Observed % inhibitory effect on submaximum 5-HT-evoked response): ~40%
Percentage potentiation of submaximum agonist-evoked responses (mean±S.E.M.) ([8]; 100 μM ACh): 428±23%
ng of ACh curve after modulator ([8]; 1 mM 5-HI): 1.4 ± 0.13
Effect of modulator on ACh-evoked current (words) ([8]; Xenopus oocytes): positive modulation is still observed
EC50 ([8]; read-out: Positive allosteric modulation potency, two electrode voltage clamp: EC50 (95% C.I.), submaximum ACh (100 μM)-evoked response): 500 µM
Peak current amplitude evoked by compound alone, normalized to 10 μM ACh ([9]; 1 mM): 5.4+/−1.8%
ng of ACh curve after modulator ([9]; 1 mM 5-HI): 1.35 ± 0.25
Peak current amplitude evoked by compound alone, normalized to 10 μM ACh ([9]; 3 mM): 37.8+/−11.6%
Percentage potentiation of submaximum agonist-evoked responses (mean±S.E.M.) ([9]; 10-30 μM ACh): 262±39%
Direct current activation by modulator alone ([9]; Xenopus oocytes): could also evoke responses in Chimera 2; also recorded: evoked unique agonist-like current
EC50 ([9]; read-out: Positive allosteric modulation potency, two electrode voltage clamp: EC50 (95% C.I.), submaximum ACh (10-30 μM)-evoked response): 496 µM

Agonist-evoked current [10]: significant inward currents
Emax ([7]; Xenopus oocytes, read-out: Maximum activation): 100%
SMILES: NCCc1c[nH]c2ccc(O)cc12 [5-HT, 5-hydroxytryptamine]

SMILES: C[N+](C)(C)CCO [Choline, choline]
EC50 ([1]; Agonist potency, two electrode voltage clamp, Xenopus oocyte: EC50 (95% C.I.), peak current amplitude): 1120 µM
Emax [1, 12]: 81 ± 4%
Emax [2, 13]: 101 ± 6%
FLIPR-FMP pEC50 ± SEM ([2]; HEK-293 cells): 4.4 ± 0.04
EC50 [2, 14]: 37.8 µM
Emax [3, 13]: 132 ± 9%
FLIPR-FMP pEC50 ± SEM ([3]; HEK-293 cells): 2.9 ± 0.06
EC50 [3, 14]: 285 µM
Electrophysiology (POETs) pEC50 ± SEM ([8]; Xenopus oocytes): 2.9 ± 0.06
EC50 ([8]; read-out: Agonist potency, two electrode voltage clamp, Xenopus oocyte: EC50 (95% C.I.), peak current amplitude): 1510 µM
Emax [8, 12]: 91 ± 7%
Electrophysiology (POETs) pEC50 ± SEM [9]: 3.7 ± 0.08
EC50 ([9]; read-out: Agonist potency, two electrode voltage clamp, Xenopus oocyte: EC50 (95% C.I.)): 214 µM
Emax [9, 12]: 78 ± 4%

SMILES: CC[C@H](C)[C@H]1O[C@]2(CC[C@@H]1C)C[C@@H]1C[C@@H](C/C=C(\C)[C@@H](O[C@H]3C[C@H](OC)[C@@H](O[C@H]4C[C@H](OC)[C@@H](O)[C@H](C)O4)[C@H](C)O3)[C@@H](C)/C=C/C=C3\CO[C@@H]4[C@H](O)C(C)=C[C@@H](C(=O)O1)[C@]34O)O2 [IVM, ivermectin]
ng of ACh curve after modulator ([1]; 30 μM IVM): 1.4 ± 0.16
Effect of modulator on ACh-evoked current (words) [1]: substantial increase in the amplitude of the subsequent ACh-evoked current
ng of ACh curve after modulator ([8]; 30 μM IVM): 1.8 ± 0.05
Effect of modulator on ACh-evoked current (words) ([8]; Xenopus oocytes): absence of effects
ng of ACh curve after modulator ([9]; 30 μM IVM): 1.1 ± 0.12

SMILES: c1ccc(-c2nnc(N3CCN4CCC3CC4)o2)cc1 [NS6784, 2-(1,4-diazabicyclo[3.2.2]nonan-4-yl)-5-phenyl-1,3,4-oxadiazole]
Emax [2, 13]: 107 ± 5%
FLIPR-FMP pEC50 ± SEM ([2]; HEK-293 cells): 7.1 ± 0.04
EC50 [2, 14]: 0.072 µM
Emax [3, 13]: 100%
FLIPR-FMP pEC50 ± SEM ([3]; HEK-293 cells): 6.8 ± 0.10
EC50 [3, 14]: 0.133 µM

SMILES: O=C(N[C@H]1CN2CCC1CC2)c1ccc(Cl)cc1 [PNU-282987]
Emax [2, 15]: 100 ± 0.01%
Emax [2, 16]: 207 ± 21%
Emax [2, 17]: 156 ± 4%
Emax [2, 13]: 99 ± 2%
FLIPR-FMP pEC50 ± SEM ([2]; HEK-293 cells): 7.0 ± 0.04
EC50 [2, 18]: 0.075 µM
EC50 [2, 19]: 0.072 µM
EC50 [2, 20]: 0.037 µM
EC50 [2, 14]: 0.053 µM
Emax [3, 15]: 98 ± 2%
Emax [3, 16]: 87 ± 3%
Emax [3, 17]: 157 ± 13%
Emax [3, 13]: 107 ± 9%
FLIPR-FMP pEC50 ± SEM ([3]; HEK-293 cells): 6.8 ± 0.07
EC50 [3, 18]: 0.343 µM
EC50 [3, 19]: 0.527 µM
EC50 [3, 20]: 0.145 µM
EC50 [3, 14]: 0.204 µM

SMILES: Br.CO[C@H]1CC=C2CCN3CCC4=C(CC(=O)OC4)[C@]23C1 [dihydro-β-erythroidine hydrobromide]
Effect on the inward current evoked by NS-1738 alone ([9]; Xenopus oocytes, data not shown): inhibited the inward current observed during the NS-1738 exposure

SMILES: CCN1C[C@]2(COC(=O)c3ccccc3N3C(=O)C[C@H](C)C3=O)CC[C@H](OC)[C@@]34[C@@H]5C[C@H]6[C@H](OC)[C@@H]5[C@](O)(C[C@@H]6OC)[C@@](O)([C@@H](OC)[C@H]23)[C@@H]14 [methyllycaconitine]
Competition / displacement of [3H]A-585539 binding [5]: competed with the binding
Competition / displacement of [3H]A-585539 binding [6]: competed with the binding
